Reference: the supplement of paper PMC10331698
± gives the standard deviation of the averaged measurements.

Key:
Assay in all cases: level (log10 ratio to DMSO vehicle control); higher = higher biomarker level / cell amount than vehicle control
[1] = compound: O=P(O)(O)CCC(F)(F)C(F)(F)C(F)(F)C(F)(F)C(F)(F)C(F)(F)F [2-(Perfluorohexyl)ethylphosphonic acid]; conditions: in DMSO
Description: (§1)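 BioMAP Diversity Plus panel of 12 human primary cell co-culture systems (3C, 4H, LPS, SAg, BT, BF4T, BE3C, CASM3C, HDF3CGF, KF3CT, MyoF, Mphg). Compounds were added 1 h before stimulation and left for 24 h (MyoF 48 h; BT 72 h for soluble read-outs or 6 d for IgG). Biomarkers were read by ELISA, cytotoxicity by SRB, PBMC viability and proliferation by Alamar Blue. Each well value was divided by the mean of 8 DMSO control wells on the same plate and log10 transformed; duplicate blinded samples were tested at 4 concentrations.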

[2] = compound: FC(F)(F)C(F)(F)C(F)(F)C(F)(F)CCI [1H,1H,2H,2H-Perfluorohexyl iodide]; conditions: in DMSO
Description: as §1

[3] = compound: CN(Cc1cnc2nc(N)nc(N)c2n1)c1ccc(C(=O)N[C@@H](CCC(=O)O)C(=O)O)cc1 [Methotrexate]; conditions: in DMSO
Description: as §1

[4] = compound: OCC(F)(F)C(F)(F)C(F)(F)C(F)(F)C(F)(F)C(F)(F)C(F)(F)C(F)(F)CO [1H,1H,10H,10H-Perfluorodecane-1,10-diol]; conditions: in DMSO
Description: as §1

[5] = compound: C=CC(=O)OCC(F)(F)C(F)(F)C(F)(F)C(F)(F)COC(=O)C=C [1H,1H,6H,6H-Perfluorohexane-1,6-diol diacrylate]; conditions: 6700 nM; in DMSO
Description: as §1

[6] = compound: O=C(O)C(F)(F)C(F)(F)C(F)(F)C(F)(F)C(F)(F)C(F)(F)C(F)(F)F [Ammonium perfluorooctanoate]; conditions: in DMSO
Description: as §1

[7] = compound: Cc1ccc(S(=O)(=O)OCC(F)(F)C(F)(F)C(F)(F)C(F)(F)C(F)(F)C(F)F)cc1 [1H,1H,7H-Perfluoroheptyl 4-methylbenzenesulfonate]; conditions: in DMSO
Description: as §1

| Test System | level (log10) ([1]; 6700 nM) | level (log10) ([1]; 20000 nM) | level (log10) ([1]; 60000 nM) | level (log10) ([2]; 6700 nM) | level (log10) ([2]; 20000 nM) | level (log10) ([2]; 60000 nM) | level (log10) ([3]; 1500 nM) | level (log10) ([3]; 4400 nM) | level (log10) ([3]; 13000 nM) | level (log10) ([3]; 40000 nM) | level (log10) ([4]; 6700 nM) | level (log10) ([4]; 20000 nM) | level (log10) ([4]; 60000 nM) | level (log10) [5] | level (log10) ([6]; 6700 nM) | level (log10) ([6]; 20000 nM) | level (log10) ([6]; 60000 nM) | level (log10) ([7]; 6700 nM) | level (log10) ([7]; 20000 nM) | level (log10) ([7]; 60000 nM) |
| --- | --- | --- | --- | --- | --- | --- | --- | --- | --- | --- | --- | --- | --- | --- | --- | --- | --- | --- | --- | --- |
| LPS:sPGE2 | -0.0245 ± 0.013 | -0.0005 ± 0.019 | 0.0035 ± 0.025 | -0.004 ± 0.014 | -0.002 ± 0.017 | 0.0245 ± 0.03 | 0.011 ± 0.025 | -0.0045 ± 0.057 | -0.0135 ± 0.067 | -0.0235 ± 0.021 | -0.0125 ± 0.03 | 0.0375 ± 0.0078 | 0.025 | -0.0195 ± 0.0064 | -0.0185 ± 0.022 | -0.067 ± 0.018 | -0.172 ± 0.044 | -0.0185 ± 0.03 | -0.023 ± 0.024 | 0.003 ± 0.058 |
| LPS:sTNF-alpha | 0.008 ± 0.0085 | 0.0105 ± 0.026 | 0.007 ± 0.0042 | -0.003 ± 0.12 | 0.0385 ± 0.069 | 0.088 ± 0.071 | 0.0165 ± 0.033 | 0 ± 0.079 | -0.045 ± 0.024 | -0.0525 ± 0.069 | -0.0915 ± 0.069 | -0.043 ± 0.0085 | -0.023 | 0.0235 ± 0.029 | 0.004 ± 0.0085 | 0.001 ± 0.0057 | -0.0135 ± 0.00071 | 0.003 ± 0.0057 | -0.006 ± 0.016 | -0.0035 ± 0.0064 |
| SAg:CCL2/MCP-1 | 0.0075 ± 0.0092 | -0.006 ± 0.016 | 0.041 | -0.0075 ± 0.015 | 0.004 ± 0.0014 | -0.015 ± 0.018 | -0.0055 ± 0.12 | -0.037 ± 0.028 | -0.009 ± 0.024 | -0.0075 ± 0.05 | -0.0145 ± 0.0092 | -0.02 ± 0.0042 | -0.008 | -0.0875 ± 0.04 | -0.0035 ± 0.0035 | -0.007 ± 0.011 | 0.01 ± 0.034 | -0.024 ± 0.016 | -0.027 ± 0.011 | -0.021 ± 0.023 |
| SAg:CD38 | 0.018 | 0.0025 ± 0.016 | -0.0055 ± 0.011 | 0.009 ± 0.021 | -0.007 ± 0.0071 | -0.005 ± 0.031 | 0.037 ± 0.0099 | -0.0175 ± 0.005 | 0.031 ± 0.0085 | 0.006 ± 0.028 | -0.0275 ± 0.00071 | -0.04 ± 0.0099 | -0.027 | -0.0305 ± 0.0078 | -0.011 ± 0.018 | -0.0055 ± 0.0064 | -0.051 ± 0.017 | 0.005 ± 0.0057 | -0.0075 ± 0.012 | -0.0075 ± 0.012 |
| SAg:CD40 | 0.007 ± 0.0028 | 0.0015 ± 0.00071 | -0.026 ± 0.0099 | 0.019 ± 0.013 | 0.012 ± 0.0014 | -0.0185 ± 0.018 | -0.02 ± 0.0042 | -0.0525 ± 0.018 | -0.0055 ± 0.079 | -0.0305 ± 0.088 | -0.0395 ± 0.0078 | -0.0625 ± 0.028 | -0.081 | -0.0895 ± 0.023 | -0.008 ± 0.011 | -0.022 | -0.0695 ± 0.011 | -0.0125 ± 0.0078 | 0.001 ± 0.031 | -0.0135 ± 0.011 |
| SAg:CD62E/E-Selectin | 0.004 ± 0.0042 | 0.0015 ± 0.0021 | 0.0635 ± 0.021 | -0.0095 ± 0.005 | -0.014 ± 0.014 | -0.008 ± 0.018 | 0.007 ± 0.011 | -0.0015 ± 0.032 | 0.019 ± 0.016 | -0.0075 ± 0.018 | -0.0215 ± 0.005 | -0.015 ± 0.0099 | -0.015 | -0.15 ± 0.021 | 0.0045 ± 0.0035 | 0.02 ± 0.013 | 0.035 ± 0.0014 | 0.021 ± 0.0028 | 0.007 ± 0.018 | -0.0115 ± 0.028 |
| SAg:CD69 | -0.004 ± 0.025 | -0.008 ± 0.02 | 0.009 ± 0.03 | 0.0135 ± 0.015 | -0.003 ± 0.0014 | -0.0125 ± 0.005 | -0.001 ± 0.0085 | -0.033 ± 0.024 | -0.0185 ± 0.061 | -0.003 ± 0.04 | -0.042 ± 0.044 | -0.0685 ± 0.066 | -0.119 | -0.0645 ± 0.029 | -0.0115 ± 0.00071 | -0.026 ± 0.0014 | -0.062 ± 0.0085 | -0.01 ± 0.0099 | 0.0205 ± 0.016 | 0.0105 ± 0.00071 |
| SAg:CXCL8/IL-8 | -0.003 ± 0.038 | 0.015 ± 0.023 | 0.143 ± 0.0021 | 0.012 ± 0.0042 | -0.0035 ± 0.0092 | -0.006 ± 0.058 | 0.023 ± 0.037 | -0.0215 ± 0.022 | -0.004 ± 0.02 | 0.0195 ± 0.052 | -0.0125 ± 0.037 | -0.01 ± 0.018 | -0.051 | -0.102 ± 0.011 | -0.0325 ± 0.026 | 0.007 ± 0.013 | 0.127 ± 0.16 | 0.005 ± 0.0014 | 0.0025 ± 0.0064 | 0.0265 ± 0.033 |
| SAg:CXCL9/MIG | 0.0025 ± 0.0035 | -0.012 | 0.0005 ± 0.022 | -0.0015 ± 0.005 | -0.006 ± 0.0085 | 0.009 ± 0.0028 | 0.0095 ± 0.0035 | 0 ± 0.035 | 0.006 ± 0.034 | -0.003 ± 0.027 | -0.022 ± 0.0042 | 0.0005 ± 0.019 | -0.021 | -0.009 ± 0.018 | -0.004 | 0.003 ± 0.013 | 0.009 ± 0.0085 | 0.001 ± 0.0042 | -0.028 | -0.0075 ± 0.0064 |
| SAg:PBMC Cytotoxicity | -0.019 ± 0.023 | 0.012 ± 0.037 | -0.0165 ± 0.026 | 0.006 ± 0.03 | -0.0025 ± 0.03 | -0.093 ± 0.088 | -0.001 ± 0.017 | 0.0015 ± 0.023 | 0.011 ± 0.018 | 0.0005 ± 0.0035 | 0.009 | 0.0155 ± 0.036 | -0.155 | -0.066 ± 0.038 | 0.011 ± 0.035 | 0.049 ± 0.011 | 0.052 ± 0.04 | 0.0275 ± 0.0092 | 0.0285 ± 0.0092 | 0.017 ± 0.02 |
| SAg:Proliferation | 0.0125 ± 0.0078 | -0.0165 ± 0.019 | -0.036 ± 0.03 | -0.0205 ± 0.0078 | -0.043 ± 0.013 | -0.155 ± 0.014 | -0.085 ± 0.011 | -0.199 ± 0.044 | -0.253 ± 0.016 | -0.263 ± 0.023 | -0.0135 ± 0.025 | -0.058 ± 0.013 | -0.048 | -0.296 ± 0.063 | 0.002 ± 0.0085 | 0.0175 ± 0.029 | 0.044 ± 0.044 | -0.0085 ± 0.07 | -0.011 ± 0.0085 | -0.0335 ± 0.086 |
| SAg:SRB | -0.008 ± 0.011 | 0.0025 ± 0.013 | -0.0355 ± 0.035 | 0.0005 ± 0.0064 | -0.0005 ± 0.005 | 0.0035 ± 0.0078 | -0.002 ± 0.0042 | -0.007 ± 0.0014 | 0.003 ± 0.0071 | -0.0015 ± 0.0021 | 0.001 ± 0.018 | -0.0145 ± 0.015 | -0.067 | -0.0115 ± 0.005 | -0.013 ± 0.0042 | -0.012 ± 0.0057 | -0.034 ± 0.0042 | 0.002 ± 0.0057 | -0.017 ± 0.011 | -0.109 ± 0.02 |
